Molecular target: T1, recombinant human liver GK (Homo sapiens, UniProt P35557)
T1 construct: made in house; host or cells: E. coli
T1 sequence (P35557 1-466 isoform P35557-2): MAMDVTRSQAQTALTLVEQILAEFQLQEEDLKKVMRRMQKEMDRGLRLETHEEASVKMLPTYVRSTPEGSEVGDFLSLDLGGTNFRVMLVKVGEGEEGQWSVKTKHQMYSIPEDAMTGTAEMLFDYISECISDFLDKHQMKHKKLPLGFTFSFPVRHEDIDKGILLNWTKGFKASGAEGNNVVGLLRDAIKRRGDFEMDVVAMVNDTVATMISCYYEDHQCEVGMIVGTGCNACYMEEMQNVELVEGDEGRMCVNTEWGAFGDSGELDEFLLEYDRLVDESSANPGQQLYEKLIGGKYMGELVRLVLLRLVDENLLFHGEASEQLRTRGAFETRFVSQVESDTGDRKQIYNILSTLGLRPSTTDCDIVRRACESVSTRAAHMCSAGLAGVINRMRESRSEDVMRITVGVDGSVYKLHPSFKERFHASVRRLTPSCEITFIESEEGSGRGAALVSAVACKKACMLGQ
Assay: Glucokinase (GK) activation assay: Thio-NADH formation coupled with G6PDH, absorbance at 405 nm
Type: biochemical
Settings: final glucose concentration 2.5 mM, 30° C.; for Emax: OD level of DMSO control set as 100%
Excerpt: The glucokinase activity may be determined not by directly measuring glucose-6-phosphate but by measuring the level of Thio-NADH, which is produced when a reporter enzyme, glucose-6-phosphate dehydrogenase produces phosphogluconolactone from glucose-6-phosphate, and based on the level, the degree of glucokinase activity of the compound tested may be determined.
In this assay, used was a recombinant human liver GK, which was expressed by E. coli as a FLAG fusion protein therein and was purified by […] M2 AFFINITY GEL (Sigma).
Using a 96-well plate, the assay was carried out at 30° C. 69 μl of an assay buffer (25 mM Hepes Buffer/pH=7.2, 2 mM MgCl2, 1 mM ATP, 0.5 mM TNAD, 1 mM dithiothreitol) was put into the plate, and 1 μl of a DMSO solution of the compound or DMSO alone as a control was added thereto. Next, 20 μl of an enzyme mixture (FLAG-GK, 20 U/ml G6PDH) cooled in ice was added to it, and 10 μl of a substrate, 25 mM glucose was added to it, and the reaction was initiated (final glucose concentration=2.5 mM).
After the start of the reaction, the increase in the absorbance at 405 nm was measured for 10 minutes at intervals of 30 seconds, and the increase for the first 5 minutes was used for evaluating the compound tested. FLAG-GK was added so that the absorbance increase after 5 minutes in the presence of 1% DMSO could be from 0.05 to 1.0.
The OD level of the DMSO control was set as 100%; and the OD level of the test compound at different concentrations was determined. From the OD level at each concentration, Emax (%) and EC50 (μM) were computed and used as the index of the GK-activating potency of the compound.

| Structure (SMILES) | Emax [%] | EC50 [nM] |
| --- | --- | --- |
| CC(=O)c1ccccc1Oc1cc2nc(-c3ccccn3)[nH]c2cc1Oc1ccc(C(=O)N(C)C)cc1 [Example 26, 5-(2-Acetyl-phenoxy)-6-(4-dimethylcarbamoyl-phenoxy)-2-pyridin-2-yl-1H-benzimidazole] | 768 | 2300 |
| COc1ccccc1Oc1cc(Oc2cccnc2)cc2[nH]c(-c3ccccn3)nc12 [Example 67, 4-(2-Methoxy-phenoxy)-2-pyridin-2-yl-6-(pyridin-3-yloxy)-1H-benzimidazole] | 832 | 1400 |
